Bridge positions count the residues as written; N and C are the ends. Peptide text beside a SMILES is read from it. * marks the point of attachment. X1 = O=C(CCOCC(COCCC(=O)NCCOCCOCCOCCOC[C@@]12CO[C@@H](O1)[C@H](NC(=O)C(F)(F)F)[C@@H](O)[C@H]2O)(COCCC(=O)NCCOCCOCCOCCOC[C@@]12CO[C@@H](O1)[C@H](NC(=O)C(F)(F)F)[C@@H](O)[C@H]2O)NC(=O)CCO[C@H]1C[C@H](OCCC(=O)*)C1)NCCOCCOCCOCCOC[C@@]12CO[C@@H](O1)[C@H](NC(=O)C(F)(F)F)[C@@H](O)[C@H]2O
Molecular target: ASGPR (Homo sapiens (Human), UniProt P07306)
Test: Affinity to ASGPR measured by surface plasmon resonance (SPR)
Format: binding
Settings: ASGPR ligands with linker, Table 5; read-out: ASGPR_SPR Binding KD

Sequence of ASGPR (P07306 whole entry): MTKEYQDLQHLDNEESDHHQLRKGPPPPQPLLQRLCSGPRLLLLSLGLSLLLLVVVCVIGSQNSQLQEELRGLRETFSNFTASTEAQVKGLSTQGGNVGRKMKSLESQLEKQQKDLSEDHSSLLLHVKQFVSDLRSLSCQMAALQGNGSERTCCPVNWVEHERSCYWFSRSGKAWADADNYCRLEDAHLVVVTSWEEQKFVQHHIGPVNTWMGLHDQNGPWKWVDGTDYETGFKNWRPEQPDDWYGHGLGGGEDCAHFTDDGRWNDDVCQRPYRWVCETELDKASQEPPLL

Kd [µM]	SMILES
< 100	CC(C)C[C@@H]1NC(=O)[C@@H](NC(=O)[C@@H](NC(=O)[C@H](CCC(N)=O)NC(=O)[C@H](Cc2cnc[nH]2)NC(=O)CCO[C@H]2C[C@H](OCCC(=O)NC(COCCC(=O)NCCOCCOCCOCCOC[C@@]34CO[C@@H](O3)[C@H](NC(=O)C(F)(F)F)[C@@H](O)[C@H]4O)(COCCC(=O)NCCOCCOCCOCCOC[C@@]34CO[C@@H](O3)[C@H](NC(=O)C(F)(F)F)[C@@H](O)[C@H]4O)COCCC(=O)NCCOCCOCCOCCOC[C@@]34CO[C@@H](O3)[C@H](NC(=O)C(F)(F)F)[C@@H](O)[C@H]4O)C2)C(C)C)CSSC[C@@H](C(=O)N[C@@H](Cc2ccccc2)C(=O)N[C@@H](CO)C(=O)N[C@H](C(N)=O)[C@@H](C)O)NC(=O)[C@H](C(C)C)NC(=O)[C@@H]2CCCN2C(=O)[C@H](CCCNC(=N)N)NC(=O)CNC(=O)[C@H](CCCNC(=N)N)NC(=O)[C@H](Cc2ccc(O)cc2)NC(=O)[C@H](CO)NC1=O [Compound 31] (X1-HQVCLSYRGRPVCFST-NH2; disulfide 4-13)

Same assay, conditions: ASGPR ligands, Table 2; Biacore 8K, 25° C., steady state fit; read-out: SPR Binding External Calculation: KD

Kd [µM]	SMILES
100 to 500	OC[C@@H]1CO[C@H](CO)[C@H](O)[C@@H]1O [Compound A181, (2R,3R,4R,5R)-2,5-bis(hydroxymethyl)tetrahydro-2H-pyran-3,4-diol]
> 1000	OC[C@H]1OC[C@@H](CCc2ccccc2)[C@@H](O)[C@H]1O [Compound A160, (2R,3R,4R,5R)-2-(hydroxymethyl)-5-phenethyltetrahydro-2H-pyran-3,4-diol]

Same assay, conditions: ASGPR ligands, Table 4; class symbols; read-out: ASGPR_PR Binding KD

SMILES	Kd [µM]
CN1CCN(c2nsc(N[C@H]3CO[C@H](CO)[C@H](O)[C@@H]3O)n2)CC1 [Compound A338, (2R,3R,4R,5S)-2-(hydroxymethyl)-5-((3-(4-methylpiperazin-1-yl)-1,2,4-thiadiazol-5-yl)amino)tetrahydro-2H-pyran-3,4-diol]	< 100
OC[C@H]1OC[C@@H](CNc2nc(Cl)ns2)[C@@H](O)[C@H]1O [Compound A188, (2R,3R,4R,5R)-5-(((3-chloro-1,2,4-thiadiazol-5-yl)amino)methyl)-2-(hydroxymethyl)tetrahydro-2H-pyran-3,4-diol]	100 to 500
CO[C@H]1O[C@H](CO)[C@H](O)[C@H](O)[C@H]1Nc1nccc(C(F)(F)F)n1 [Compound A377]	< 100
CN(C)[C@@H]1CO[C@H](CO)[C@H](O)[C@@H]1O [Compound A393, (2R,3R,4R,5R)-5-(dimethylamino)-2-(hydroxymethyl)tetrahydro-2H-pyran-3,4-diol]	100 to 500
CO[C@@H]1O[C@H](CO)[C@H](O)[C@H](O)[C@@H]1N1CCOCC1 [Compound A218, (2R,3R,4R,5S,6R)-2-(hydroxymethyl)-6-methoxy-5-morpholinotetrahydro-2H-pyran-3,4-diol]	> 1000
CN1CCN([C@@H]2CO[C@H](CO)[C@H](O)[C@@H]2O)C1=O [Compound A392, 1-((3R,4R,5R,6R)-4,5-dihydroxy-6-(hydroxymethyl)tetrahydro-2H-pyran-3-yl)-3-methylimidazolidin-2-one]	100 to 500
O=C(N[C@H]1CO[C@H](CO)[C@H](O)[C@@H]1O)c1ccccc1 [Compound A342, N-((3S,4R,5R,6R)-4,5-dihydroxy-6-(hydroxymethyl)tetrahydro-2H-pyran-3-yl)benzamide]	< 100
OC[C@H]1OC[C@H](Nc2ncccn2)[C@@H](O)[C@H]1O [Compound A318]	< 100
O=C1CCCN1[C@@H]1CO[C@H](CO)[C@H](O)[C@@H]1O [Compound A180, 1-((3R,4R,5R,6R)-4,5-dihydroxy-6-(hydroxymethyl)tetrahydro-2H-pyran-3-yl)pyrrolidin-2-one]	< 100
CCOc1cc(Cl)nc(N[C@H]2CO[C@H](CO)[C@H](O)[C@@H]2O)n1 [Compound A367, (2R,3R,4R,5S)-5-((4-chloro-6-ethoxypyrimidin-2-yl)amino)-2-(hydroxymethyl)tetrahydro-2H-pyran-3,4-diol]	< 100
OC[C@H]1OC[C@H](Nc2nc(Cl)nn3cccc23)[C@@H](O)[C@H]1O [Compound A304]	< 100
COc1nc(Cl)nc(N[C@H]2CO[C@H](CO)[C@H](O)[C@@H]2O)n1 [Compound A330]	< 100
CO[C@@H]1O[C@H](CO)[C@H](O)[C@H](O)[C@H]1Nc1nccc(C(F)(F)F)n1 [Compound A384]	< 100
COc1nc(C#N)nc(N[C@H]2CO[C@H](CO)[C@H](O)[C@@H]2O)n1 [Compound A349, 4-(((3S,4R,5R,6R)-4,5-dihydroxy-6-(hydroxymethyl)tetrahydro-2H-pyran-3-yl)amino)-6-methoxy-1,3,5-triazine-2-carbonitrile]	< 100

Results, then the compound that gave them:

Kd [µM]	SMILES
< 100	COc1cc(N[C@H]2CO[C@H](CO)[C@H](O)[C@@H]2O)nc(C(F)(F)F)n1 [Compound A359, (2R,3R,4R,5S)-2-(hydroxymethyl)-5-((6-methoxy-2-(trifluoromethyl)pyrimidin-4-yl)amino)tetrahydro-2H-pyran-3,4-diol]
< 100	OC[C@H]1OC[C@H](Nc2cncc(C(F)(F)F)n2)[C@@H](O)[C@H]1O [Compound A315]
< 100	OC[C@H]1OC[C@H](Nc2ccnc(C(F)(F)F)n2)[C@@H](O)[C@H]1O [Compound A301]
< 100	OC[C@H]1OC[C@H](Nc2ccnc(Cl)n2)[C@@H](O)[C@H]1O [Compound A317]
< 100	CSc1ccnc(N[C@H]2CO[C@H](CO)[C@H](O)[C@@H]2O)n1 [Compound A336]
< 100	OC[C@H]1OC[C@H](Nc2nccc(Cl)c2C(F)(F)F)[C@@H](O)[C@H]1O [Compound A307]
< 100	N#Cc1cncc(N[C@H]2CO[C@H](CO)[C@H](O)[C@@H]2O)n1 [Compound A312]

Same assay, conditions: ASGPR ligands, Table 4; numeric lower bounds; read-out: ASGPR_PR Binding KD

SMILES	Kd [µM]
COC(=O)c1cc(OC)nc(N[C@H]2CO[C@H](CO)[C@H](O)[C@@H]2O)n1 [Compound A374, methyl 2-(((3S,4R,5R,6R)-4,5-dihydroxy-6-(hydroxymethyl)tetrahydro-2H-pyran-3-yl)amino)-6-methoxypyrimidine-4-carboxylate]	> 20
CC(=O)NCCC[C@@H]1CO[C@H](CO)[C@H](O)[C@@H]1O [Compound A163, N-(3-((3R,4R,5R,6R)-4,5-dihydroxy-6-(hydroxymethyl)tetrahydro-2H-pyran-3-yl)propyl)acetamide]	> 200
COC(=O)[C@@H]1CO[C@H](CO)[C@H](O)[C@@H]1O [Compound A401, methyl (3R,4R,5R,6R)-4,5-dihydroxy-6-(hydroxymethyl)tetrahydro-2H-pyran-3-carboxylate]	> 200
CCOc1cc(C#N)nc(N[C@H]2CO[C@H](CO)[C@H](O)[C@@H]2O)n1 [Compound A368, 2-(((3S,4R,5R,6R)-4,5-dihydroxy-6-(hydroxymethyl)tetrahydro-2H-pyran-3-yl)amino)-6-ethoxypyrimidine-4-carbonitrile]	> 20
Cn1cc([C@@H]2CO[C@H](CO)[C@H](O)[C@@H]2O)cn1 [Compound A394, (2R,3R,4R,5R)-2-(hydroxymethyl)-5-(1-methyl-1H-pyrazol-4-yl)tetrahydro-2H-pyran-3,4-diol]	> 200

Next, values leading:

Kd [µM]	SMILES
> 20	OC[C@H]1OC[C@H](Nc2nc3ccc(C(F)(F)F)cc3s2)[C@@H](O)[C@H]1O [Compound A322]
> 20	N#Cc1cnc(N[C@H]2CO[C@H](CO)[C@H](O)[C@@H]2O)s1 [Compound A372, 2-(((3S,4R,5R,6R)-4,5-dihydroxy-6-(hydroxymethyl)tetrahydro-2H-pyran-3-yl)amino)thiazole-5-carbonitrile]
> 20	OC[C@H]1OC[C@@H](NC2=NCCC(C(F)(F)F)=N2)[C@@H](O)[C@H]1O [Compound A389]
